pIC50: −log10 of the molar value. The source made the active and inactive calls. The calls are words filed in the database; no cut-off is given here.
What was measured:
SGC-7901 [1] = test: Induction of cell cycle arrest in human SGC-7901 cells assessed as reduction in CDC2 phosphorylation at Thr161 residue at 0 to 30 nmol/L incubated for 48 hrs by Western blot analysis; assay type: functional, cell-based; details: dose 0-30 nmol/L
SGC-7901 [2] = test: Induction of apoptosis in human SGC-7901 cells assessed as downregulation of Bcl-2 protein expression incubated for 48 hrs by Western blot analysis; assay type: functional, cell-based; details: dose 0-30 nmol/L
[3] = Hepatotoxicity in BALB/c nude mouse xenografted with human MGC-803 cells assessed as effect on AST level at 25 mg/kg/day, ip administered every day for 21 days; assay type: toxicity, organism-based; details: in vivo, 504 h, time 21 day
MGC-803 [4] = test: Induction of cell cycle arrest in human MGC-803 cells assessed as increase in p-Histone H3 protein expression incubated for 48 hrs by Western blot analysis; assay type: functional, cell-based; details: dose 0-24 nmol/L
MGC-803 [5] = test: Induction of apoptosis in human MGC-803 cells assessed as downregulation of Bcl-2 protein expression incubated for 48 hrs by Western blot analysis; assay type: functional, cell-based; details: dose 0-24 nmol/L
[6] = Hepatotoxicity in BALB/c nude mouse xenografted with human MGC-803 cells assessed as effect on ALT level at 25 mg/kg/day, ip administered every day for 21 days; assay type: toxicity, organism-based; details: in vivo, 504 h, time 21 day
KYSE-450 = test: cells; details: Homo sapiens, KYSE-450, 48 h
Description: Antiproliferative activity against human KYSE-450 cells assessed as inhibition of cell growth incubated for 48 hrs by MTT assay

DU-145 = test: Antiproliferative activity against human DU-145 cells assessed as inhibition of cell growth incubated for 48 hrs by MTT assay; assay type: functional, cell-based; details: DU-145, 48 h
SGC-7901 [7] = test: Induction of DNA damage in human SGC-7901 cells assessed as DNA fragmentation by measuring increase in comet tails by fluorescence microscope based comet assay; assay type: functional, cell-based; details: dose 0-30 nmol/L
SGC-7901 [8] = test: Induction of apoptosis in human SGC-7901 cells assessed as activation of caspase-7 at 0 to 30 nmol/L incubated for 48 hrs by Western blot analysis; assay type: functional, cell-based; details: dose 0-30 nmol/L
SGC-7901 [9] = test: Induction of apoptosis in human SGC-7901 cells assessed as increase in cleaved caspase-7 level at 0 to 30 nmol/L incubated for 48 hrs by Western blot analysis; assay type: functional, cell-based; details: dose 0-30 nmol/L
MGC-803 [10] = test: Induction of apoptosis in human MGC-803 cells assessed as increase in cleaved caspase-7 level at 0 to 24 nmol/L incubated for 48 hrs by Western blot analysis; assay type: functional, cell-based; details: dose 0-24 nmol/L
SGC-7901 [11] = test: Antiproliferative activity against human SGC-7901 cells assessed as inhibition of cell growth incubated for 48 hrs by MTT assay; assay type: functional, cell-based; details: SGC-7901, 48 h
SGC-7901 [12] = test: Induction of cell cycle arrest in human SGC-7901 cells assessed as increase in p-Histone H3 protein expression incubated for 48 hrs by Western blot analysis; assay type: functional, cell-based; details: dose 0-30 nmol/L
MGC-803 [13] = test: Antitumor activity against human MGC-803 cells xenografted in BALB/c nude mouse assessed as reduction in tumor volume at 25 mg/kg/day, ip administered every day for 21 days; assay type: functional, organism-based; details: time 21.0 day
ECa-109 cell line = test: Antiproliferative activity against human EC109 cells assessed as inhibition of cell growth incubated for 48 hrs by MTT assay; assay type: functional, cell-based; details: ECa-109, 48 h
MGC-803 [14] = test: Antiproliferative activity against human MGC-803 cells assessed as inhibition of cell growth incubated for 48 hrs by MTT assay
MGC-803 [15] = test: Induction of apoptosis in human MGC-803 cells assessed as downregulation of Mcl-1 protein expression incubated for 48 hrs by Western blot analysis; assay type: functional, cell-based; details: dose 0-24 nmol/L
HGC-27 = test: Antiproliferative activity against human HGC-27 cells assessed as inhibition of cell growth incubated for 48 hrs by MTT assay; assay type: functional, cell-based; details: HGC-27, 48 h
MGC-803 [16] = test: Induction of cell cycle arrest in human MGC-803 cells assessed as reduction in cyclin B1 protein expression incubated for 48 hrs by Western blot analysis; assay type: functional, cell-based; details: dose 0-24 nmol/L
MGC-803 [17] = test: Induction of apoptosis in human MGC-803 cells assessed as total apoptotic cells at 24 nmol/L incubated for 48 hrs by Annexin-FITC/PI staining based flow cytometry analysis (reference value: 10.9%); assay type: functional
[18] = Nephrotoxicity in BALB/c nude mouse xenografted with human MGC-803 cells assessed as effect on creatinine level at 25 mg/kg/day, ip administered every day for 21 days; assay type: toxicity, organism-based; details: in vivo, 504 h, time 21 day
MGC-803 [19] = test: Induction of cell cycle arrest in human MGC-803 cells assessed as downregulation of Wee1 protein expression incubated for 48 hrs by Western blot analysis; assay type: functional, cell-based; details: dose 0-24 nmol/L
Tubulin (Homo sapiens) = Tubulin (Homo sapiens) (UniProt P68371+Q9H4B7+P0DPH7+P68366+Q13509+Q71U36+P04350+Q3ZCM7+P07437+P68363+Q9BQE3+Q6PEY2+Q13885+Q9BVA1+Q9BUF5); test: Inhibition of tubulin polymerization in human SGC-7901 cells assessed as destruction of microtubule network incubated for 48 hrs by immunofluorescence staining based fluorescence microscopic analysis; assay type: cell-based; details: dose 0-30 nmol/L
MGC-803 [20] = test: Induction of cell cycle arrest in human MGC-803 cells assessed as downregulation of CDC2 protein expression incubated for 48 hrs by Western blot analysis; assay type: functional, cell-based; details: dose 0-24 nmol/L
SGC-7901 [21] = test: Induction of morphological changes in human SGC-7901 cells assessed as appearance of bright and shrunken nucleus at 0 to 30 nmol/L incubated for 48 hrs by DAPI staining based analysis; assay type: functional, cell-based; details: dose 0-30 nmol/L
SMMC-7721 = test: Antiproliferative activity against human SMMC-7721 cells assessed as inhibition of cell growth incubated for 48 hrs by MTT assay; assay type: functional, cell-based; details: SMMC-7721, 48 h
MGC-803 [22] = test: Induction of DNA damage in human MGC-803 cells assessed as DNA fragmentation by measuring increase in comet tails by fluorescence microscope based comet assay; assay type: functional, cell-based; details: dose 0-24 nmol/L
[23] = biological target: T1, Lysine-specific histone demethylase 1A (Homo sapiens, UniProt O60341); test: Inhibition of LSD1 in human SGC-7901 cells assessed as increase in H3K4me2 expression level at 0 to 30 nmol/L incubated for 48 hrs by Western blot analysis; assay type: cell-based; details: dose 0-30 nmol/L
SGC-7901 [24] = test: Induction of cell cycle arrest in human SGC-7901 cells assessed as downregulation of Wee1 protein expression incubated for 48 hrs by Western blot analysis; assay type: functional, cell-based; details: dose 0-30 nmol/L
[25] = biological target: T1, Lysine-specific histone demethylase 1A; test: Inhibition of LSD1 in human SGC-7901 cells assessed as increase in H3K4me1 expression level at 0 to 30 nmol/L incubated for 48 hrs by Western blot analysis; assay type: cell-based; details: dose 0-30 nmol/L
SGC-7901 [26] = test: Induction of apoptosis in human SGC-7901 cells assessed as activation of caspase-3 at 0 to 30 nmol/L incubated for 48 hrs by Western blot analysis; assay type: functional, cell-based; details: dose 0-30 nmol/L
MGC-803 [27] = test: Induction of morphological changes in human MGC-803 cells assessed as reduction in cell density at 0 to 24 nmol/L incubated for 48 hrs by bright field microscopic analysis; assay type: functional, cell-based; details: dose 0-24 nmol/L
SGC-7901 [28] = test: Inhibition of cell migration in human SGC-7901 cells assessed as reduction in rate of wound healing at 4 nmol/L measured after 0 to 48 hrs; assay type: functional, cell-based; details: time 0-48 hrs
[29] = biological target: T1, Lysine-specific histone demethylase 1A; test: Inhibition of recombinant LSD1 (unknown origin) using H3K4me2 peptide as substrate preincubated for 10 mins followed by substrate addition and measured after 30 mins by amplex red based fluorescence microplate reader analysis
MGC-803 [30] = test: Induction of morphological changes in human MGC-803 cells assessed as appearance of bright and shrunken nucleus at 0 to 24 nmol/L incubated for 48 hrs by DAPI staining based analysis; assay type: functional, cell-based; details: dose 0-24 nmol/L

pIC50 (KYSE-450): 7.52 | pIC50 (DU-145): 7.30 | pIC50 (SGC-7901 [11]): 7.71 | inhibition (Tubulin (Homo sapiens)): Dose-Dependent Effect | pIC50 (SMMC-7721): 7.57 | inhibition [23]: Active | inhibition [25]: Active | pIC50 [29]: 5.55
SMILES: COc1ccc(CN(C(=O)CSC(=S)N2CCN(c3ccc(N)cc3)CC2)c2cc(OC)c(OC)c(OC)c2)cc1O
Activity (SGC-7901 [1]): Active | Activity (SGC-7901 [2]): Dose-Dependent Effect | Activity [3]: Non-Toxic | Activity (MGC-803 [4]): Dose-Dependent Effect | Activity (MGC-803 [5]): Dose-Dependent Effect | Activity [6]: Non-Toxic | Activity (SGC-7901 [7]): Dose-Dependent Effect | Activity (SGC-7901 [8]): Active | Activity (SGC-7901 [9]): Active | Activity (MGC-803 [10]): Active | Activity (SGC-7901 [12]): Dose-Dependent Effect | Activity (MGC-803 [13]): Active | pIC50 (ECa-109 cell line): 6.94 | Activity (MGC-803 [14]): Dose-Dependent Effect | Activity (MGC-803 [15]): Dose-Dependent Effect | pIC50 (HGC-27): 7.61 | Activity (MGC-803 [16]): Dose-Dependent Effect | Activity (MGC-803 [17]): 85.5% | Activity [18]: Non-Toxic | Activity (MGC-803 [19]): Dose-Dependent Effect | Activity (MGC-803 [20]): Dose-Dependent Effect | Activity (SGC-7901 [21]): Active | Activity (MGC-803 [22]): Dose-Dependent Effect | Activity (SGC-7901 [24]): Dose-Dependent Effect | Activity (SGC-7901 [26]): Active | Activity (MGC-803 [27]): Active | inhibition (SGC-7901 [28]): Active | Activity (MGC-803 [30]): Active

From ChEMBL document CHEMBL5346930, “Discovery of novel N-benzylarylamide-dithiocarbamate based derivatives as dual inhibitors of tubulin polymerization and LSD1 that inhibit gastric cancers” (Eur J Med Chem, 2023)
